Assay results: the NIST ThermoML archive (doi:10.1016/j.fluid.2017.11.013)
Values joined by “and” are separate entries in the source; they are usually repeats but may differ in a detail not shown here. Identical values can stand only once.

Conditions: Coaxial cylinder method

C=C [ethene]
Conditions | thermal conductivity
283.47 K, 101 kPa, Gas | 0.01865 W/m/K
283.47 K, 4620 kPa, Fluid (supercritical or subcritical phases) | 0.03417 W/m/K
283.47 K, 4770 kPa, Fluid (supercritical or subcritical phases) | 0.03732 W/m/K
283.47 K, 4910 kPa, Fluid (supercritical or subcritical phases) | 0.04251 W/m/K
283.47 K, 4960 kPa, Fluid (supercritical or subcritical phases) | 0.04566 W/m/K
283.47 K, 5050 kPa, Fluid (supercritical or subcritical phases) | 0.05593 W/m/K
283.47 K, 5090 kPa, Fluid (supercritical or subcritical phases) | 0.06391 W/m/K
283.47 K, 5120 kPa, Fluid (supercritical or subcritical phases) | 0.07425 W/m/K
283.47 K, 5140 kPa, Fluid (supercritical or subcritical phases) | 0.09013 W/m/K
283.47 K, 5150 kPa, Fluid (supercritical or subcritical phases) | 0.1049 W/m/K and 0.1032 W/m/K
283.47 K, 5160 kPa, Fluid (supercritical or subcritical phases) | 0.1241 W/m/K
283.47 K, 5170 kPa, Fluid (supercritical or subcritical phases) | 0.1339 W/m/K
283.47 K, 5180 kPa, Fluid (supercritical or subcritical phases) | 0.1143 W/m/K
283.47 K, 5190 kPa, Fluid (supercritical or subcritical phases) | 0.09843 W/m/K
283.47 K, 5200 kPa, Fluid (supercritical or subcritical phases) | 0.09006 W/m/K and 0.0888 W/m/K
283.47 K, 5210 kPa, Fluid (supercritical or subcritical phases) | 0.08522 W/m/K
283.47 K, 5220 kPa, Fluid (supercritical or subcritical phases) | 0.08191 W/m/K
283.47 K, 5230 kPa, Fluid (supercritical or subcritical phases) | 0.07984 W/m/K
283.47 K, 5240 kPa, Fluid (supercritical or subcritical phases) | 0.07787 W/m/K
283.47 K, 5250 kPa, Fluid (supercritical or subcritical phases) | 0.076 W/m/K
283.47 K, 5290 kPa, Fluid (supercritical or subcritical phases) | 0.07419 W/m/K
283.47 K, 5300 kPa, Fluid (supercritical or subcritical phases) | 0.07248 W/m/K
283.47 K, 5370 kPa, Fluid (supercritical or subcritical phases) | 0.07203 W/m/K
283.47 K, 5390 kPa, Fluid (supercritical or subcritical phases) | 0.07122 W/m/K
283.47 K, 5440 kPa, Fluid (supercritical or subcritical phases) | 0.06948 W/m/K
283.47 K, 5480 kPa, Fluid (supercritical or subcritical phases) | 0.06848 W/m/K
283.47 K, 5540 kPa, Fluid (supercritical or subcritical phases) | 0.06774 W/m/K
283.47 K, 5730 kPa, Fluid (supercritical or subcritical phases) | 0.06774 W/m/K
283.47 K, 5820 kPa, Fluid (supercritical or subcritical phases) | 0.06848 W/m/K
283.47 K, 5930 kPa, Fluid (supercritical or subcritical phases) | 0.06847 W/m/K
283.47 K, 6220 kPa, Fluid (supercritical or subcritical phases) | 0.07041 W/m/K
283.47 K, 6490 kPa, Fluid (supercritical or subcritical phases) | 0.07152 W/m/K
283.47 K, 6720 kPa, Fluid (supercritical or subcritical phases) | 0.07259 W/m/K
283.47 K, 6980 kPa, Fluid (supercritical or subcritical phases) | 0.07316 W/m/K
283.47 K, 7060 kPa, Fluid (supercritical or subcritical phases) | 0.07329 W/m/K
283.47 K, 7200 kPa, Fluid (supercritical or subcritical phases) | 0.07345 W/m/K
283.47 K, 7610 kPa, Fluid (supercritical or subcritical phases) | 0.07519 W/m/K
283.47 K, 8250 kPa, Fluid (supercritical or subcritical phases) | 0.07664 W/m/K
283.47 K, 8910 kPa, Fluid (supercritical or subcritical phases) | 0.07874 W/m/K
283.96 K, 101 kPa, Gas | 0.01869 W/m/K
283.96 K, 3380 kPa, Fluid (supercritical or subcritical phases) | 0.02528 W/m/K
283.96 K, 3960 kPa, Fluid (supercritical or subcritical phases) | 0.02767 W/m/K
283.96 K, 4620 kPa, Fluid (supercritical or subcritical phases) | 0.03396 W/m/K
283.96 K, 4970 kPa, Fluid (supercritical or subcritical phases) | 0.04334 W/m/K
283.96 K, 5050 kPa, Fluid (supercritical or subcritical phases) | 0.04855 W/m/K
283.96 K, 5090 kPa, Fluid (supercritical or subcritical phases) | 0.05262 W/m/K
283.96 K, 5110 kPa, Fluid (supercritical or subcritical phases) | 0.05631 W/m/K
283.96 K, 5120 kPa, Fluid (supercritical or subcritical phases) | 0.05987 W/m/K
283.96 K, 5150 kPa, Fluid (supercritical or subcritical phases) | 0.06832 W/m/K
283.96 K, 5190 kPa, Fluid (supercritical or subcritical phases) | 0.08914 W/m/K
283.96 K, 5200 kPa, Fluid (supercritical or subcritical phases) | 0.1005 W/m/K
283.96 K, 5210 kPa, Fluid (supercritical or subcritical phases) | 0.11 W/m/K
283.96 K, 5220 kPa, Fluid (supercritical or subcritical phases) | 0.1162 W/m/K
283.96 K, 5230 kPa, Fluid (supercritical or subcritical phases) | 0.1119 W/m/K
283.96 K, 5240 kPa, Fluid (supercritical or subcritical phases) | 0.1008 W/m/K
283.96 K, 5260 kPa, Fluid (supercritical or subcritical phases) | 0.08675 W/m/K
283.96 K, 5270 kPa, Fluid (supercritical or subcritical phases) | 0.08189 W/m/K
283.96 K, 5290 kPa, Fluid (supercritical or subcritical phases) | 0.0783 W/m/K
283.96 K, 5300 kPa, Fluid (supercritical or subcritical phases) | 0.07641 W/m/K
283.96 K, 5340 kPa, Fluid (supercritical or subcritical phases) | 0.07293 W/m/K
283.96 K, 5400 kPa, Fluid (supercritical or subcritical phases) | 0.07163 W/m/K
283.96 K, 5500 kPa, Fluid (supercritical or subcritical phases) | 0.06977 W/m/K
283.96 K, 5590 kPa, Fluid (supercritical or subcritical phases) | 0.06886 W/m/K
283.96 K, 5740 kPa, Fluid (supercritical or subcritical phases) | 0.06796 W/m/K
283.96 K, 5920 kPa, Fluid (supercritical or subcritical phases) | 0.06854 W/m/K
283.96 K, 6140 kPa, Fluid (supercritical or subcritical phases) | 0.06972 W/m/K
283.96 K, 6310 kPa, Fluid (supercritical or subcritical phases) | 0.0703 W/m/K
283.96 K, 6530 kPa, Fluid (supercritical or subcritical phases) | 0.0709 W/m/K
283.96 K, 6710 kPa, Fluid (supercritical or subcritical phases) | 0.07122 W/m/K
283.96 K, 7100 kPa, Fluid (supercritical or subcritical phases) | 0.07249 W/m/K
284.89 K, 101 kPa, Gas | 0.01877 W/m/K
284.89 K, 680 kPa, Fluid (supercritical or subcritical phases) | 0.02012 W/m/K
284.89 K, 1170 kPa, Fluid (supercritical or subcritical phases) | 0.02064 W/m/K
284.89 K, 2430 kPa, Fluid (supercritical or subcritical phases) | 0.02241 W/m/K
284.89 K, 3520 kPa, Fluid (supercritical or subcritical phases) | 0.02591 W/m/K
284.89 K, 4330 kPa, Fluid (supercritical or subcritical phases) | 0.03024 W/m/K
284.89 K, 4740 kPa, Fluid (supercritical or subcritical phases) | 0.03518 W/m/K
284.89 K, 4900 kPa, Fluid (supercritical or subcritical phases) | 0.03781 W/m/K
284.89 K, 5030 kPa, Fluid (supercritical or subcritical phases) | 0.04219 W/m/K
284.89 K, 5100 kPa, Fluid (supercritical or subcritical phases) | 0.04581 W/m/K
284.89 K, 5160 kPa, Fluid (supercritical or subcritical phases) | 0.05257 W/m/K
284.89 K, 5200 kPa, Fluid (supercritical or subcritical phases) | 0.05764 W/m/K
284.89 K, 5240 kPa, Fluid (supercritical or subcritical phases) | 0.0653 W/m/K
284.89 K, 5260 kPa, Fluid (supercritical or subcritical phases) | 0.06948 W/m/K
284.89 K, 5290 kPa, Fluid (supercritical or subcritical phases) | 0.08267 W/m/K
284.89 K, 5310 kPa, Fluid (supercritical or subcritical phases) | 0.09324 W/m/K
284.89 K, 5320 kPa, Fluid (supercritical or subcritical phases) | 0.09654 W/m/K
284.89 K, 5340 kPa, Fluid (supercritical or subcritical phases) | 0.09916 W/m/K
284.89 K, 5360 kPa, Fluid (supercritical or subcritical phases) | 0.08875 W/m/K
284.89 K, 5380 kPa, Fluid (supercritical or subcritical phases) | 0.08399 W/m/K
284.89 K, 5400 kPa, Fluid (supercritical or subcritical phases) | 0.07691 W/m/K
284.89 K, 5430 kPa, Fluid (supercritical or subcritical phases) | 0.07429 W/m/K
284.89 K, 5460 kPa, Fluid (supercritical or subcritical phases) | 0.07184 W/m/K
284.89 K, 5490 kPa, Fluid (supercritical or subcritical phases) | 0.06955 W/m/K
284.89 K, 5530 kPa, Fluid (supercritical or subcritical phases) | 0.06954 W/m/K
284.89 K, 5600 kPa, Fluid (supercritical or subcritical phases) | 0.06952 W/m/K
284.89 K, 5610 kPa, Fluid (supercritical or subcritical phases) | 0.06954 W/m/K
284.89 K, 5670 kPa, Fluid (supercritical or subcritical phases) | 0.06864 W/m/K
284.89 K, 5780 kPa, Fluid (supercritical or subcritical phases) | 0.06822 W/m/K
284.89 K, 5890 kPa, Fluid (supercritical or subcritical phases) | 0.06866 W/m/K
284.89 K, 6170 kPa, Fluid (supercritical or subcritical phases) | 0.06954 W/m/K
284.89 K, 6530 kPa, Fluid (supercritical or subcritical phases) | 0.07045 W/m/K
284.89 K, 7030 kPa, Fluid (supercritical or subcritical phases) | 0.07139 W/m/K
284.89 K, 7500 kPa, Fluid (supercritical or subcritical phases) | 0.07332 W/m/K
284.89 K, 8190 kPa, Fluid (supercritical or subcritical phases) | 0.07593 W/m/K
284.89 K, 8580 kPa, Fluid (supercritical or subcritical phases) | 0.07756 W/m/K
284.89 K, 8590 kPa, Fluid (supercritical or subcritical phases) | 0.07756 W/m/K
284.89 K, 9070 kPa, Fluid (supercritical or subcritical phases) | 0.07866 W/m/K
284.89 K, 9530 kPa, Fluid (supercritical or subcritical phases) | 0.07924 W/m/K
284.89 K, 9990 kPa, Fluid (supercritical or subcritical phases) | 0.08043 W/m/K
284.89 K, 10010 kPa, Fluid (supercritical or subcritical phases) | 0.08041 W/m/K
285.04 K, 5080 kPa, Fluid (supercritical or subcritical phases) | 0.04457 W/m/K
285.04 K, 5100 kPa, Fluid (supercritical or subcritical phases) | 0.04514 W/m/K
285.04 K, 5210 kPa, Fluid (supercritical or subcritical phases) | 0.05584 W/m/K
285.04 K, 5270 kPa, Fluid (supercritical or subcritical phases) | 0.06826 W/m/K
285.04 K, 5300 kPa, Fluid (supercritical or subcritical phases) | 0.07918 W/m/K
285.04 K, 5340 kPa, Fluid (supercritical or subcritical phases) | 0.09492 W/m/K
285.04 K, 5350 kPa, Fluid (supercritical or subcritical phases) | 0.09641 W/m/K
285.04 K, 5370 kPa, Fluid (supercritical or subcritical phases) | 0.09081 W/m/K
285.04 K, 5420 kPa, Fluid (supercritical or subcritical phases) | 0.07925 W/m/K
285.04 K, 5490 kPa, Fluid (supercritical or subcritical phases) | 0.07233 W/m/K
285.04 K, 5640 kPa, Fluid (supercritical or subcritical phases) | 0.06952 W/m/K
285.04 K, 6040 kPa, Fluid (supercritical or subcritical phases) | 0.06871 W/m/K and 0.0687 W/m/K
285.04 K, 6050 kPa, Fluid (supercritical or subcritical phases) | 0.06846 W/m/K
285.04 K, 6140 kPa, Fluid (supercritical or subcritical phases) | 0.06843 W/m/K
285.04 K, 6150 kPa, Fluid (supercritical or subcritical phases) | 0.06861 W/m/K
